Test results: US20140335115A1 (priority 2013, published 2014)

Key:
Assay type in all cases: cell-based
[1] = test system: vaccinia virus
[2] = test system: cowpoxvirus
[3] = test system: monkeypoxvirus

Measured: prevention of spread of virus to Jurkat T cells

O=C(NN1C(=O)[C@@H]2[C@@H]3C=C[C@@H]([C@H]4C[C@@H]34)[C@@H]2C1=O)c1ccc(C(F)(F)F)cc1 [ST246]
~90%: all assays above
